# Data reported in US11400058B2, “Intravenous formulations of coenzyme Q10 (CoQ10) and methods of use thereof” (Berg LLC, priority 2010, dated 2022).
# Columns and labels:
# [1] = test system: liver clone of a malignant chloroma; assay: Effect on liver cancer: liver clone of malignant chloroma in rats, alone and with cyclophosphamide; assay type: in vivo, Fischer 344 rats; details: Group III, cyclophosphamide 35 mg/kg once
# Protocol: Effect of CoQ10 IV Formulation on Liver Cancer: The ability of a Coenzyme Q10 formulation of the present invention to inhibit proliferation of liver tumor cells was examined in an animal model. Twenty-four Fischer 344 rats were injected intraperitoneally with the liver clone of a malignant chloroma Rats were then randomized into groups of 6 rats each. Group 1 served as a control, treated with 0.5 mL of phosphate buffered saline on Monday, Wednesday and Friday for three (3) weeks. Group II received a sterile nanodispersion by IP injection of 20 mg of Coenzyme Q10. […] The formulation was administered by IP injection in a volume of 0.5 mL on Monday, Wednesday and Friday for three (3) weeks. Group III received 35 mg/kg of cyclophosphamide once. Group IV received 20 mg of the 4:3:1.5 CoQ10 formulation in 0.5 mL on Monday, Wednesday and Friday for three (3) weeks. In addition, they received 35 mg/kg of cyclophosphamide once.
# [2] = test system: lung clone of a malignant chloroma; assay: Effect on lung tumors: lung clone of malignant chloroma in rats, alone and with cyclophosphamide; assay type: in vivo, Fischer 344 rats; details: Group III, cyclophosphamide 35 mg/kg IP once
# Protocol: Twenty-four Fischer 344 rats were injected intraperitoneally with the lung clone of a malignant chloroma. The rats were then randomized into groups of 6 rats each. Group 1 served as a control, treated with 0.5 mL of phosphate buffered saline (PBS) on Monday, Wednesday and Friday for three (3) weeks. […] The formulation was administered by IP injection in a volume of 0.5 mL on Monday, Wednesday, and Friday for three (3) weeks. Group III received 35 mg/kg cyclophosphamide by IP injection once.
# [3] = Combination therapy with doxorubicin, survival of rodents; assay type: in vivo; details: administered intraperitoneally, by itself, in rodents
# Protocol: Combination Therapy With CoQ10 IV Formulation and Chemotherapy Adjuvant Doxorubicin, a powerful chemotherapeutic, is lethal when administered intraperitoneally, by itself, in rodents. CoQ10 IV Formulation was administered in combination with doxorubicin.
# MiaPACA2 = MiaPACA2 pancreatic carcinoma cells injected in the pancreas of NSG mice, survival; assay type: in vivo; details: doxorubicin group
# Protocol: Effect of CoQ10 IV Formulation on Pancreatic Carcinoma Cell Line: MiaPACA2, a pancreatic cell line was employed on NSG mice. Mice were anesthetized in a sterile environment where they had been housed. Once animals reached surgical-plane anesthesia, mice were laid down, and the abdominal area was palpated. The pancreas was located behind the stomach, between the spleen, and the stomach, both of which are palpable organs. Thereafter, […] were injected in the pancreas by gently manipulating the animal to reach the area behind the stomach. All of these procedures were performed under sterile conditions in a biosafety cabinet, and the animals were housed under strict sterile conditions as well to avoid opportunistic infections. After injection of cells, animals were closely monitored daily. Animals were then randomized into 8 groups receiving a different dose of the CoQ10 N formulation. […] The formulation was administered intravenously via tail veins with dosing every other day three times per week for up to 28 days. The summary of results are depicted in the following graphs (FIGS. 49-56).
SMILES,rats remained disease-free [1] [rat],the other three rats survived up to day [1] [days],4 rats survived up to day [2] [days],rats remained disease-free [2] [rat],lethality [3],survivors at 60 days (MiaPACA2)
"O=P1(N(CCCl)CCCl)NCCCO1 (stereo not drawn) [chemotherapy, cyclophosphamide]",1,34,35,1,,
COc1cccc2c1C(=O)c1c(O)c3c(c(O)c1C2=O)C[C@@](O)(C(=O)CO)C[C@@H]3O[C@H]1C[C@H](N)[C@H](O)[C@H](C)O1 [doxorubicin],,,,,lethal,0 of 30
